Assay [1] relates to surface-anchored SpA of S. aureus. Nature of the assay: FITC-IgG binding assay for staphylococcal protein A (SpA). It is filed as cell-based. The conditions noted are these: Staphylococcus aureus, read-out: SpA fluorescence, relative activity % of the WT group. How it is done: Bacterial cultures grown overnight were diluted 1:100 and cultured in an incubator at 37°C with Tax or DMSO to a concentration of 10^8 CFU/mL. The ΔsrtA mutant strain was assayed as a positive control. The bacteria were collected and washed three times in PBS. A 50 μL aliquot of bacterial culture was mixed with an equal volume of FITC-labeled rabbit anti-goat-IgG (1:200, Sigma, United States) then incubated in the dark for 1 h. The bacteria were then washed and suspended in PBS. A multimode microplate reader (Tecan, Spark 20M) was used to measure fluorescence intensity at 535 nm when illuminated at an excitation wavelength of 485 nm.
FIGURE 3 Effect of SrtA inhibitor on virulence-related phenotypes in S. aureus Newman strain. (A) Impact of Tax on the ability of S. aureus to adhere to fibrinogen. (B) Biofilm formation of S. aureus in the presence of different concentrations of Tax. (C) Mature biofilms of S. aureus in the presence of different concentrations of Tax. The ΔsrtA group represented the positive control. (D) Tax affects internalization of S. aureus into A549 cells. […] The number of viable S. aureus in the cells was quantified by serial dilution on TSA agar plates. […] Error bars represent means ± SD of three replicates. *P < 0.05, **P < 0.01, ***P < 0.001 calculated with a two-tailed Student’s t-test.

The target in a further assay is T1, SrtA (Staphylococcus aureus, UniProt Q2FV99).
T1 construct: 6xHis; made in house; host or cells: E. coli BL21 (DE3), plasmid pET28a-SrtA
Briefly: Localized surface plasmon resonance (LSPR). It is filed as binding. Here is the method:
The interaction between Tax and SrtA was determined using an OpenSPR localized surface plasmon resonance (LSPR) instrument (Nicoya, Canada) at 25°C, as described previously ([Panneer Selvam et al., 2018]; [Song et al., 2019]). Briefly, SrtA proteins were captured on a COOH chip using a standard amine coupling system. A 200 μL aliquot of blocking buffer was added to rinse the sample ring and to remove any air. After a stable baseline had been achieved, the affinity between Tax and SrtA was measured by injecting 20, 40, 80, 160, or 320 μM Tax. The kinetic parameters of the binding reaction were calculated and visualized using TraceDrawer software ([Yang et al., 2011]).
FIGURE 4 Expression of SrtA in the presence of Tax and the interaction of different concentrations of Tax with SrtA. (A) Western blot analysis of SrtA protein from S. aureus treated with various concentrations of Tax and grayscale analysis of SrtA protein bands. (B) LSPR analysis verified the binding affinity of Tax with SrtA. Error bars represent means ± SD of three replicates. ***P < 0.001 calculated with a two-tailed Student’s t-test.

The next assay concerns the target T2, D170A-SrtA mutant (Staphylococcus aureus, UniProt Q2FV99, D170A).
T2 construct: 6xHis; made in house; host or cells: E. coli BL21 (DE3), mutated pET28a-SrtA
Briefly: Fluorescence quenching assay, D170A-SrtA. It is filed as binding. Here is the method:
Site-directed mutagenesis for D170A-SrtA and Q172A-SrtA was performed based on plasmid pET28a-SrtA using a multi-site mutagenesis kit (Transgen, Beijing, China) and the desired mutation was verified via DNA sequencing by Sangon Biotech (Shanghai, China). Subsequently, recombinant SrtA and the SrtA mutant proteins (D170A and Q172A) were expressed and purified in accordance with a previously published procedure ([Zhulenkovs et al., 2014]). Briefly, bacteria were cultured until an OD600 value of 0.8 was achieved, after which 0.5 mM isopropyl-β-D-thiogalactopyranoside (IPTG) was added to induce recombination of SrtA at 16°C overnight. Because the recombinant protein had 6 × His tags, it was purified using a nickel-nitrilotriacetic acid (Ni-NTA) purification system. Imidazole (10 mM) was used to wash away excess protein, while 400 mM imidazole was employed to elute the target protein.
Molecular modeling studies highlight the benefits of performing site-directed mutagenesis studies. Therefore, fluorescence quenching experiments were utilized to determine the binding affinity of Tax with SrtA and SrtA mutants (D170A, Q172A).

For assay [2], the system named is S. aureus USA300 pneumonia in C57BL/6J mice. Nature of the assay: Murine model of MRSA-induced pneumonia. In kind it is in vivo, mouse. How it is done:
To investigate the therapeutic capability of Tax to treat acute pneumonia infection caused by S. aureus USA300, 6- to 8-week-old female C57BL/6J mice were infected intranasally with 2 × 10^8 CFU of S. aureus USA300, then held upright for 30 s to ensure each animal inhaled the bacteria into their lungs. Two h post-infection, the mice were subcutaneously injected with Tax (100 mg/kg). Similarly, mice were challenged with ΔsrtA and sterile PBS containing 0.5% DMSO (control group) as controls. To assess survival, the mice were checked every 12 h for 96 h, and the percentage that had survived was recorded.
For bacterial counts in lung tissue and histopathological examination, mice were infected intranasally with 30 μL (1 × 10^8 CFUs) of S. aureus USA300. Tax (100 mg/kg) was then injected subcutaneously every 12 h after inoculation. The bacterial load in the lungs was determined after the mice in each group were sacrificed 48 h post-infection. The left lung from each animal was removed aseptically and processed to count the bacterial CFUs. The right lung of each mouse was aseptically removed and analyzed by conventional hematoxylin and eosin (H&E) staining using an optical microscope. The ratio of wet to dry lung tissue weight (W/D ratio) was recorded in each case. Wet lung weight was measured 1 min after surface moisture had been removed. Dry lung weight was determined after dehydration at 80°C. The W/D ratio is used to reveal the degree of tissue edema ([Xia et al., 2016]).
FIGURE 6 Effect of treatment with Tax on S. aureus-induced pneumonia in mice. (A) Effect of Tax on the survival of mice (n = 10 per group) infected with a lethal dose of S. aureus. (B) Effect of Tax (100 mg/kg) on bacterial load in the lungs of mice (n = 6). (C) Gross pathological changes and histopathology of mouse lungs treated with Tax (100 mg/kg/d) or untreated. Scale bar: 50 μm. (D) Lung wet-to-dry weight ratio (W/D). Each value represents mean ± SD (n = 5 per group). **P < 0.01, ***P < 0.001; Mann-Whitney test, two-tailed. Horizontal bars represent mean values. Animal data were obtained from two separate experiments.

By Kd is commonly meant a measure of binding affinity in units of concentration. `O=C1c2c(O)cc(O)cc2OC(c2ccc(O)c(O)c2)C1O` (centres unmarked) [Tax, taxifolin]: the activity at 200 µM in assay [1] was 36.1 ± 1.59%. Moreover, the Kd is 165 µM on SrtA and 37.2 µM on D170A-SrtA mutant. Also, the kon on SrtA (read-out: Ka) turned out to be 22.3 M⁻¹ s⁻¹. Also, the “bacterial load in the lungs” value in assay [2] (Tax 100 mg/kg subcutaneous every 12 h, 48 h post-infection) was found to be 6.73 ± 0.69 lg CFU/g. Further, the lung histopathology result in assay [2] (Tax 100 mg/kg, infected mice, H&E staining) was “significantly reduced inflammation”. Also, the “lung wet-to-dry weight ratio (W/D)” value in assay [2] (Tax 100 mg/kg, infected mice, P < 0.001) is recorded as 5.35 ± 0.34. Moreover, the “survival rate of mice” value in assay [2] (lethal dose S. aureus USA300 intranasal, Tax 100 mg/kg subcutaneous, 96 h, p < 0.01) was determined as 50%.

For the origin of these results see publication PMC8290497, “Taxifolin, an Inhibitor of Sortase A, Interferes With the Adhesion of Methicillin-Resistant Staphylococcal aureus” (Frontiers in Microbiology, 2021).
